Our source for the T/C values is PubChem BioAssay AID256 (DTP/NCI, 2004).

Where “and” joins values, the source holds several entries; their conditions need not be identical. Equal entries are not always repeated. Toxic doses and inconclusive results are not listed.

In the assay the test system is CD2F1 mice, L1210 leukemia ip, survival T/C. Kind of assay: NCI In Vivo Anticancer Drug Screen. Data for tumor model L1210 Leukemia (intraperitoneal) in CD2F1 (CDF1) mice. As to conditions: higher = longer survival. The procedure, abridged:
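Antitumor effect is scored in animals hosting a serially transplanted tumor. Values compare compound-dosed animals against vehicle-only controls as a simple quotient.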

Where [1] appears, read: endpoint: mean survival time, dose: 100.0 mg/kg/injection, schedule: Q04DX003 (ip), vehicle: saline with Tween-80.
Where [2] appears, read: endpoint: mean survival time, dose: 200.0 mg/kg/injection, schedule: Q04DX003 (ip), vehicle: saline with Tween-80.
[3] abbreviates: endpoint: mean survival time, dose: 100.0 mg/kg/injection, schedule: Q01DX001 (ip), vehicle: saline with Tween-80.
Where [4] appears, read: endpoint: mean survival time, dose: 200.0 mg/kg/injection, schedule: Q01DX001 (ip), vehicle: saline with Tween-80.
Setting [5] is: endpoint: mean survival time, dose: 400.0 mg/kg/injection, schedule: Q01DX001 (ip), vehicle: saline with Tween-80.
Setting [6] is: endpoint: mean survival time, dose: 200.0 mg/kg/injection, schedule: Q01DX009 (ip), vehicle: saline with Tween-80.
Where [7] appears, read: endpoint: mean survival time, dose: 400.0 mg/kg/injection, schedule: Q01DX009 (ip), vehicle: saline with Tween-80.
Setting [8] is: endpoint: mean survival time, dose: 400.0 mg/kg/injection, schedule: Q04DX003 (ip), vehicle: saline with Tween-80.
Setting [9] is: endpoint: mean survival time, dose: 100.0 mg/kg/injection, schedule: Q01DX009 (ip), vehicle: saline with Tween-80.

As to `CCCCCC(O)C1C(=O)OC(C)C(O)/C=C/C=C/C=C/C=C\C=C(\C)C(O)CC(O)CC(O)CC(O)CC(O)CC(O)CC1O` (stereo not given), the T/C is 104 % of control (endpoint: median survival time, dose: 3.12 mg/kg/injection, schedule: Q01DX009 (ip), vehicle: distilled water + alcohol); 104 % of control (endpoint: median survival time, dose: 6.25 mg/kg/injection, schedule: Q01DX009 (ip), vehicle: distilled water + alcohol); 104 % of control (endpoint: median survival time, dose: 12.5 mg/kg/injection, schedule: Q01DX009 (ip), vehicle: distilled water + alcohol); 100 % of control (endpoint: median survival time, dose: 25.0 mg/kg/injection, schedule: Q01DX009 (ip), vehicle: distilled water + alcohol).

For `CC([NH-])CC(C)[NH-].O=[N+]([O-])O.O=[N+]([O-])O.[Pt+2]` (stereo not given), the T/C (endpoint: mean survival time, dose: 6.25 mg/kg/injection, schedule: Q04DX003 (ip), vehicle: saline) is 154 % of control; the T/C (endpoint: mean survival time, dose: 12.5 mg/kg/injection, schedule: Q04DX003 (ip), vehicle: saline) is 247 % of control; the T/C (endpoint: mean survival time, dose: 25.0 mg/kg/injection, schedule: Q04DX003 (ip), vehicle: saline) was 207 % of control.

In the case of `CC(O)C1OC(n2cnc3c(=O)[nH]cnc32)CC1O` (stereo not given), the T/C is 100 % of control (endpoint: median survival time, dose: 12.5 mg/kg/injection, schedule: Q01DX005 (ip), vehicle: water); 100 % of control (endpoint: median survival time, dose: 25.0 mg/kg/injection, schedule: Q01DX005 (ip), vehicle: water); 104 % of control (endpoint: median survival time, dose: 50.0 mg/kg/injection, schedule: Q01DX005 (ip), vehicle: water); 102 % of control (endpoint: median survival time, dose: 100.0 mg/kg/injection, schedule: Q01DX005 (ip), vehicle: water); 102 % of control (endpoint: median survival time, dose: 200.0 mg/kg/injection, schedule: Q01DX005 (ip), vehicle: water).

As for `OCC1OC(n2cnc3c(SSc4ncnc5c4ncn5C4CC(O)C(CO)O4)ncnc32)CC1O` (stereo not given), the T/C (endpoint: mean survival time, dose: 178.0 mg/kg/injection, schedule: Q01DX001 (ip), vehicle: saline) is 114 % of control.

With `O=C(COc1ccc(Cl)c(Cl)c1)Nc1ccc[n+](Cc2cccc(Cl)c2S(=O)(=O)F)c1`, the T/C by setting is: under setting [1], 97 % of control; under setting [2], 105 % of control.

`COCC1C2CCC(C2)C1COC` (stereo not given): the T/C by setting is: under setting [3], 104 % of control; under setting [4], 92 % of control; under setting [5], 97 % of control.

Turning to `ClC1C(c2ccccc2)=C(c2ccccc2)c2ccccc21` (stereo not given), the T/C runs as follows: under setting [3], 87 % of control; under setting [4], 91 % of control; under setting [6], 101 % of control; under setting [7], 98 % of control.

Regarding `O=C(O)CC1=C(c2ccc3ccccc3c2)CCC1=O`, the T/C is 98 % of control (endpoint: mean survival time, dose: 100.0 mg/kg/injection, schedule: Q01DX001 (ip), vehicle: saline); 98 % of control (endpoint: mean survival time, dose: 200.0 mg/kg/injection, schedule: Q01DX001 (ip), vehicle: saline); 98 % of control (endpoint: mean survival time, dose: 400.0 mg/kg/injection, schedule: Q01DX001 (ip), vehicle: saline).

With `COc1cc(C2c3cc4c(c(OC5OC6CO[C@@H](c7cccs7)OC6C(O)C5O)c3C[C@@H]3COC(=O)[C@@H]23)OCO4)cc(OC)c1O` (stereo not given in full), the T/C was 104 % of control (endpoint: median survival time, dose: 0.8 mg/kg/injection, schedule: Q01DX005 (ip), vehicle: saline with Tween-80); 100 % of control (endpoint: median survival time, dose: 1.6 mg/kg/injection, schedule: Q01DX005 (ip), vehicle: saline with Tween-80); 107 % of control (endpoint: median survival time, dose: 3.2 mg/kg/injection, schedule: Q01DX005 (ip), vehicle: saline with Tween-80); 107 % of control (endpoint: median survival time, dose: 6.4 mg/kg/injection, schedule: Q01DX005 (ip), vehicle: saline with Tween-80).

Turning to `Cn1c(-[n+]2ccccc2)nc2c1c(=O)[nH]c(=O)n2C`, the T/C (endpoint: mean survival time, dose: 12.5 mg/kg/injection, schedule: Q01DX005 (ip), vehicle: water) was 100 % of control; the T/C (endpoint: mean survival time, dose: 25.0 mg/kg/injection, schedule: Q01DX005 (ip), vehicle: water) is 102 % of control; the T/C (endpoint: mean survival time, dose: 50.0 mg/kg/injection, schedule: Q01DX005 (ip), vehicle: water) is 97 % of control; the T/C (endpoint: mean survival time, dose: 100.0 mg/kg/injection, schedule: Q01DX005 (ip), vehicle: water) is 94 % of control; the T/C (endpoint: mean survival time, dose: 200.0 mg/kg/injection, schedule: Q01DX005 (ip), vehicle: water) was 102 % of control.

Take `O=C(Nc1ccc(F)cc1)Nc1cccc2ccccc12`: the T/C was 96 % of control under setting [1], 96 % of control under setting [2] and 111 % of control under setting [8].

Regarding `CCOC(=O)CCCCSCCCCC(=O)OCC`, the T/C is, setting by setting: under setting [3], 100 % of control; under setting [4], 105 % of control; under setting [5], 101 % of control.

Consider `CC(=O)OCC(OC(C)=O)C(OC(C)=O)C(/C=N\Nc1ccccc1)=N/Nc1ccccc1` (stereo not given), for which the T/C (endpoint: mean survival time, dose: 37.5 mg/kg/injection, schedule: Q01DX001 (ip), vehicle: saline with Tween-80) was 92 % of control; the T/C (endpoint: mean survival time, dose: 75.0 mg/kg/injection, schedule: Q01DX001 (ip), vehicle: saline with Tween-80) is 96 % of control; the T/C (endpoint: mean survival time, dose: 150.0 mg/kg/injection, schedule: Q01DX001 (ip), vehicle: saline with Tween-80) is 91 % of control.

In the case of `O=c1cc(CO)[nH]c(=O)[nH]1`, the T/C is, setting by setting: (endpoint: mean survival time, dose: 12.5 mg/kg/injection, schedule: Q01DX009 (ip), vehicle: other) 91 % of control; (endpoint: mean survival time, dose: 25.0 mg/kg/injection, schedule: Q01DX009 (ip), vehicle: other) 94 % of control; (endpoint: mean survival time, dose: 50.0 mg/kg/injection, schedule: Q01DX009 (ip), vehicle: other) 91 % of control; (endpoint: mean survival time, dose: 100.0 mg/kg/injection, schedule: Q01DX009 (ip), vehicle: other) 92 % of control; (endpoint: mean survival time, dose: 200.0 mg/kg/injection, schedule: Q01DX009 (ip), vehicle: other) 97 % of control.

With `CSc1cccnn1`, the T/C (endpoint: mean survival time, dose: 100.0 mg/kg/injection, schedule: Q04DX003 (ip), vehicle: saline) was 93 % of control; the T/C (endpoint: mean survival time, dose: 200.0 mg/kg/injection, schedule: Q04DX003 (ip), vehicle: saline) is 98 % of control; the T/C (endpoint: mean survival time, dose: 400.0 mg/kg/injection, schedule: Q04DX003 (ip), vehicle: saline) is 95 % of control.

Turning to `O=C(COc1ccc(Cl)cc1Cl)Nc1ccccc1F`, the T/C reads like this: under setting [1], 100 % of control; under setting [2], 94 % of control; under setting [8], 94 % of control.

Turning to `CCCCCCCCCCCCOCC[N+](C/C=C/c1ccccc1)(CCO)CCO`, the T/C runs as follows: (endpoint: mean survival time, dose: 6.25 mg/kg/injection, schedule: Q04DX003 (ip), vehicle: saline sonified) 97 % of control; (endpoint: mean survival time, dose: 12.5 mg/kg/injection, schedule: Q04DX003 (ip), vehicle: saline sonified) 103 % of control; (endpoint: mean survival time, dose: 25.0 mg/kg/injection, schedule: Q04DX003 (ip), vehicle: saline sonified) 101 % of control.

Take `CCN(CC)Cc1cc2[nH]c3c4ccc(Cl)cc4ncc3c2cc1OC`: the T/C by setting is: (endpoint: median survival time, dose: 6.25 mg/kg/injection, schedule: Q01DX009 (ip), vehicle: saline with Tween-80) 102 % of control; (endpoint: median survival time, dose: 12.5 mg/kg/injection, schedule: Q01DX009 (ip), vehicle: saline with Tween-80) 102 % of control; (endpoint: median survival time, dose: 25.0 mg/kg/injection, schedule: Q01DX009 (ip), vehicle: saline with Tween-80) 103 % of control; (endpoint: median survival time, dose: 50.0 mg/kg/injection, schedule: Q01DX009 (ip), vehicle: saline with Tween-80) 111 % of control.

As to `CC[C@@]1(OC(=O)CN2CCCC2)C(=O)OCc2c1cc1n(c2=O)Cc2cc3ccccc3nc2-1`, the T/C reads like this: (endpoint: median survival time, dose: 6.25 mg/kg/injection, schedule: Q04DX002 (ip), vehicle: water) 108 % of control; (endpoint: median survival time, dose: 12.5 mg/kg/injection, schedule: Q04DX002 (ip), vehicle: water) 113 % of control; (endpoint: median survival time, dose: 50.0 mg/kg/injection, schedule: Q04DX002 (ip), vehicle: water) 158 % of control and 166 % of control.

As for `OC(Cc1cccc(/C=N/N2CCOCC2)n1)(C(F)(F)F)C(F)(F)F`, the T/C under setting [2] is 89 % of control and the T/C under setting [8] was 89 % of control.

As to `COC(=O)Cc1nc2ccccc2[nH]c1=O`, the T/C was 103 % of control (endpoint: mean survival time, dose: 50.0 mg/kg/injection, schedule: Q01DX009 (ip), vehicle: saline with Tween-80); 92 % of control under setting [9]; 100 % of control under setting [6].

On to `O/N=C/C=N/O.O/N=C/C=N/O.[Pd]`, for which, for the setting “endpoint: mean survival time, dose: 6.25 mg/kg/injection, schedule: Q01DX009 (ip), vehicle: saline with Tween-80”, the T/C is 100 % of control.

For the compound `CC(C)(C)ONC(=O)c1ccccc1Sc1ccccc1`, the T/C is 101 % of control under setting [9], 98 % of control under setting [6] and 97 % of control under setting [7].

Regarding `CCN(CC)CCNC(=O)C(O)(c1ccccc1)c1ccccc1`, the T/C is 98 % of control (endpoint: mean survival time, dose: 50.0 mg/kg/injection, schedule: Q01DX009 (ip), vehicle: saline) and 103 % of control (endpoint: mean survival time, dose: 100.0 mg/kg/injection, schedule: Q01DX009 (ip), vehicle: saline).
